Experimental data reported in patent publication US20230414472A1, “COSMETIC COMPOSITION INCLUDING GARLIC EXTRACT, BLACK TEA EXTRACT, AND GUAVA EXTRACT” (COSMAX INC., priority 2022, published 2023).

Legend:
[1] = tested on: acetylcholine release in human skin tissue; assay: Acetylcholine release in human skin explant (choline/acetylcholine assay kit); format: cell-based; settings: 10 μL sample every day for 3 days, FIG. 4
[2] = molecular target: T1, SNARE complex (SNAP-25, syntaxin 1a, VAMP-2) (Homo sapiens, UniProt P60880+P63027+Q16623); assay: Inhibitory effect on membrane fusion (SNARE liposome fusion, fluorescence intensity); format: biochemical; settings: 100 μM myricetin; FIG. 1
T1 construct: GST (inferred from purification on glutathione agarose beads); made in house; host or cells: E. coli
T1 sequence (P60880 whole entry, the tested form may be a part): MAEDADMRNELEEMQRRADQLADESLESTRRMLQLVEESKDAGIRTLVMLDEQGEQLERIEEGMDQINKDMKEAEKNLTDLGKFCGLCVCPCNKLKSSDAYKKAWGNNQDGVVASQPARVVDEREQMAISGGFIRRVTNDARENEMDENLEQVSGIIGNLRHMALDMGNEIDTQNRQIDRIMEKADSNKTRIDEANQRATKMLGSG
T1 sequence (Q16623 whole entry, the tested form may be a part): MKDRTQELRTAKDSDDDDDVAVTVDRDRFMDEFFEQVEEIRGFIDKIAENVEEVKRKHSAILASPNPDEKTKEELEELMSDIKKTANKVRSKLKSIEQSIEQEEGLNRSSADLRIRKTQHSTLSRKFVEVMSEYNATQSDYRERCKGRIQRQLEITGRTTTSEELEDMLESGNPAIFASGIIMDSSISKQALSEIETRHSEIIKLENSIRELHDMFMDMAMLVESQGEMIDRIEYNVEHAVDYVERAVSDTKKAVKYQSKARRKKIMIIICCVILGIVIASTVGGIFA
T1 sequence (P63027 whole entry, the tested form may be a part): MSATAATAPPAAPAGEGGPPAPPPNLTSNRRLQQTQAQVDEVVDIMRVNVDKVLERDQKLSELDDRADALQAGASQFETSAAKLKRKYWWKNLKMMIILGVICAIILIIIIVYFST
Protocol: The inhibitory effect of the composition according to an embodiment on the membrane fusion was confirmed. Also, since myricetin was predicted as an active ingredient, the inhibitory effect of 100 μM of myricetin (Sigma-Aldrich) on the membrane fusion was also confirmed.
First, a soluble nethylmaleimide-sensitive factor attachment protein (SNAP) receptor protein was overexpressed in transformed E. coli, and then the expressed protein was selectively purified and obtained by using glutathione agarose beads. Then, […] (POPC, 62 mol %), 1,2-dioleoyl-sn-glycero-3-phosphatidylserine (DOPS, 35 mol %), 1,2-dioleoyl-sn-glycero-3-phosphoserine-N-(7-nitro-2-1,3-benzoxadiazol-4-yl) (NBD-PS, 1.5 mol %), and a fluorescent material, rhodamine (rhodamin-PE, 1.5 mol %) were mixed to prepare a 10 mM fluorescent substance-labeled liposome (v-vesicle). Meanwhile, DOPS and POPC were mixed to a molar concentration of 35:65 to prepare a 50 mM liposome (t-vesicle) that is not labeled with a fluorescent substance. Then, purified synaptosomal-associated protein, SNAP-25, and syntaxin 1a were mixed at a molar concentration of 1:1 and allowed for a reaction for 1 hour at room temperature, followed by mixing with the liposome that is not labeled with a fluorescent substance at a molar ratio of 100:1. […]
Then, the fluorescence intensity thereof was measured.

VAMP2 = VAMP2 level in human skin explant (fluorescence staining); format: cell-based; settings: 10 μL sample at set concentrations, cultured 72 hours, FIG. 3

- membrane fusion rate [2]: most significantly reduced
Compound: O=c1c(O)c(-c2cc(O)c(O)c(O)c2)oc2cc(O)cc(O)c12 [myricetin]
- amount of acetylcholine released in the skin tissue [1]: significantly reduced
- VAMP2 level in the skin tissue (VAMP2): significantly reduced
